Tested on: CMV pp65 specific CTLs
Assay: Induction of CMV pp65 specific recall CTLs by PME-CD40L DCs in the presence of mTOR inhibitors
Type: cell-based, human
Protocol: 300 x 10^6 peripheral blood mononuclear cells (PBMCs) were cultured in 30 mL AIM-V media (Thermo Fisher Scientific) in T150 flasks (Corning) for 2 hours to provide for the adherence of monocytes. Non-adherent cells were removed by washing the monolayers twice with cold phosphate buffered saline (PBS) (Cambrex), and the remaining monocytes were cultured in X-VIVO 15 medium (Cambrex) for 5 days, supplemented with 1000 U/mL each of granulocyte macrophage-colony stimulating factor (GM-CSF) (Bayer AG, Leukine® liquid) and IL-4 (R&D Systems). To achieve DC maturation, immature DCs were first cultured on day 5 with 10 ng/mL tumor necrosis factor alpha (TNF-α) (R&D Systems), 1000 µ/mL interferon gamma (IFN-y) (Actimmune), and 1 µg/mL prostaglandin E2 (PGE2) (Sigma). On day 6, phenotypically mature DCs were co-electroporated with RNA encoding CD40L (Argos Lot No. 101606 JSC) at a concentration of 3 ug per million DCs plus either human cytomegalovirus (CMV) pp65 or MART-1 encoding RNAs at 2 µg per million DCs (CMVpp65 RNA-Argos Lot No 071107XF, MART-1-APL RNA-Argos Lot No. 011909HC). Generation of MART-1 RNA and CD40L RNA is described in e.g., DeBenedette et al., J. Immunol. 181(8):5296-5305 (2008).
Electroporated DCs were cultured for an additional 4 hours in X-VIVO 15 media supplemented with 800 µ/mL GM-CSF and 500 µ/mL IL-4 at 1 x 10^6 DCs/mL in low adherence 6-well plates (Costar). After 4 hr, the DCs were harvested by washing with cold PBS and prepared as a frozen formulation at 10 x 10^6 DCs/mL in 20% DMSO and 80% FBS, representing antigen electroporated Post Maturation Electroporated (PME)-CD40L DC preparations.
PME-CD40L DCs derived from HLA-A2-positive donors and transfected with antigen-encoding mRNAs were co-cultured with purified CD8^+ T cells. All co-cultures were performed in R-10 media. CD8^+ T cells were purified using the CD8+ T Cell Negative Selection Kit II (Miltenyi Biotec) from non-adherent cells harvested from the monocyte adherence step. The CD8^+ cells were mixed with DCs at a 10:1 ratio and incubated in the presence of 0.2 µg/mL IL-2 and 10 ng/mL IL-7 (R&D Systems). DC/T cell co-cultures were re-stimulated on day 7 and supplemented with 20 units/mL IL-2 plus 10 ng/mL IL-7. Induction of primary immune responses to MART-1 and memory/recall responses to CMV pp65 were measured on day 10.
To identify antigen-specific T cell responses and the phenotype of the antigen specific cells, T cells were harvested on day 10 post-stimulation and incubated with peptide-pulsed T2 target cells at a ratio of 10:1 for 4 hour with Brefeldin A, Monensin (BD Biosciences) and CD107a PE-Cy5. […] After 4 hours of co-culture, responder T cells were stained for 10 minutes with the requisite peptide/pentamer reagent, then washed once and re-stained with CD8-Eflour605, CD45RA-FITC, and CD28-APC. Cells were then washed in PBS and stained with Aquadye (BD Biosciences) for analysis of viability. Labeled cells were then fixed and permeabilized in Fixation/Permeabilization solution (eBiosciences). Cells where then stained with IFN-γ-PECy7, TNFa-AF700 and IL-2-PerCPcy5.5 in permeabilization buffer and resuspended in FACs buffer prior to acquisition.
CD8^+ cytotoxic T lymphocyte (CTL) responses were used to measure the pp65 CMV recall response induced by PME-CD40L DCs in the presence of mTOR inhibitors everolimus and temsirolimus. PME-CD40L DCs encoding CMV pp65 were used to stimulate recall CTL responses in the presence of the mTOR inhibitors under evaluation for compatibility with the CMN-001 product. The expansion of recall CTLs specific for CMV pp65 was determined on day 3 after a second weekly stimulation with PME-CD40L DCs.

[1] = 10 ng/ml, compared to DC/CTL co-cultures without mTOR inhibitor, day 3 after second weekly stimulation

SMILES: CO[C@H]1C[C@@H]2CC[C@@H](C)[C@@](O)(O2)C(=O)C(=O)N2CCCC[C@H]2C(=O)O[C@H]([C@H](C)C[C@@H]2CC[C@@H](OCCO)[C@H](OC)C2)CC(=O)[C@H](C)/C=C(\C)[C@@H](O)[C@@H](OC)C(=O)[C@H](C)C[C@H](C)/C=C/C=C/C=C/1C [everolimus]
- numbers of CMV pp65 specific CTLs [1]: increase
- percentage of CMV pp65 specific CTLs [1]: increase
- increase in absolute numbers of CMV+ CTL (1 µg/ml): evident
- increase in percentage of CMV+ CTL (1 µg/ml): evident

— patent US20230061319A1, “METHODS OF TREATING TUMORS” (CoImmune, Inc., priority 2020, published 2023)
